Series [1] in a line: Cytotoxicity test, MTT/formazan assay. The format is cell-based, monkey. The conditions noted are these: monkey, LLC-MK2 monkey kidney epithelial cells; LLC-MK2 cells, 72 h, MTT/formazan. As for the experimental part: (§1) This was done on monkey kidney epithelial cells, LLC-MK2, (ATCC, USA) as described except for use of same culture medium and conditions for P falciparum above. The cells, 10,000 in 100 μL medium per well, were cultured for 24 h to become confluent and attached to the bottom of the well and the medium replaced with 100 μL of fresh medium. […] A negative control without test substance was included. The plates were incubated for 72 h at 37 °C in 5% CO2 and cell viability were determined using microscopy to observe dead cells which appeared dark and deformed. This was followed by the MTT/formazan assay as described above with slight modification. The CC50 values (50% cytotoxic concentration) for each compound was obtained using Microsoft excel 2007. The selectivity index (SI) was calculated using the formula:3 SI=CC50onLLC‐MK2cells/IC50onP.falciparum
(§2) For the parasite lactate dehydrogenase assay, the background OD of blank wells containing non parasitized red blood cells was subtracted from values of all test wells. OD values from control wells void of test compound represented the maximum pLDH activity. The OD values obtained were used to determine the IC50, and IC90 values using the software IC Method IC Estimator V1.2 [18], an online calculator of IC values. Each assay was done twice in duplicates and the 4 IC50 or CC50 values obtained were pooled together and expressed as mean IC ± S.D.

For series [2], the system named is LLC-MK2 monkey kidney epithelial cells. As to the kind of experiment: Cytotoxicity test, MTT/formazan assay. The conditions noted are these: for Mean SI: mean of the Selectivity Indices of the 3D7 and Dd2 parasite strains; for SI on 3D7: CC50 on LLC-MK2 cells/IC50 on P. falciparum 3D7. In kind it is cell-based. As for the experimental part:
as §1, §2

A further series concerns P. falciparum 3D7. As to the kind of experiment: Secondary screen: parasite growth inhibition by parasite lactate dehydrogenase (pLDH) assay, 3D7. The format is cell-based, Plasmodium falciparum. Also noted: key to Antiplasmodial activity class on 3D7: active, IC50 < 5 μg/mL; moderately active: 5 μg/mL ≤ IC50 ≤ 10 μg/mL; weakly active: IC50 ≥ 10 μg/mL. The conditions noted are these: for Antiplasmodial activity class on 3D7: 3D7 strain, class by IC50; for IC50 / IC90: Plasmodium falciparum, 3D7 chloroquine-sensitive strain, pLDH assay, mean ± S.D.; for IC50: read-out: IC50; for IC90: read-out: IC90.
Excerpt: (§3) Two Plasmodium falciparum parasite strains were obtained from MR4 (Manassas, Virginia, USA) and stored in liquid nitrogen. The 3D7 (MRA-102) strain is chloroquine- sensitive while Dd2 is a multidrug resistant clone of the W2 strain with resistance to chloroquine, quinine, mefloquine, sulfadoxine and pyrimethamine. Parasite stocks were thawed, grown and maintained in continuous culture by the candle jar technique with some modifications. The culture consisted of 4% hematocrit suspension of human O+ erythrocytes in RPMI-1640 medium (10.43 g/L supplemented with 0.01 mg/mL gentamycin, 25 mM Hepes buffer, 25 mM NaHCO3) and 5 g Albumax II. All culture reagents were obtained from Sigma-Aldrich Inc. (Germany) except for Albumax II (Gibco; Invitrogen, USA). Cultures were incubated at 37 °C in 5% CO2.
(§4) After incubation the plate was frozen at − 20 °C for the parasite lactate dehydrogenase (pLDH) assay.
(§5) The reagent preparation and assay were done as described. The plates were subjected to 3 freeze-thaw cycles to haemolyze the red blood cells. One hundred microlitre (100 μL) of Malstat reagent was added to each required well of a fresh microtitre plate followed by 20 μL of culture. Then 25 μL of nitroblue tetrazolium/phenazine ethosulfate (NBT/PES) solution was added initiating the reaction. The plates were then incubated for an hour in the dark and optical density (OD) measured at 650 nm (Emax-Molecular Devices Corporation, California, USA).
as §2

For series [3], the system named is P. falciparum Dd2. As to the kind of experiment: Primary screen: in vitro parasite growth inhibition at a single concentration, fluorescence microscopy with acridine orange. In kind it is cell-based, Plasmodium falciparum. To be noted: Plasmodium falciparum; 40 μg/mL, 48 h, Dd2 chloroquine-resistant strain.
Excerpt: as §3
A primary screen for antiplasmodial activity at a single concentration was performed against Dd2 as described with some modifications, to identify active compounds. Stock solutions of compound (1 mg/mL) was initially dissolved in dimethylsulfoxide (DMSO), then gentamycin-free incomplete medium (without Albumax II) added giving 2% final DMSO; the solutions were sterilized and stored. The positive control solutions (artemether and quinine at 5 μg/mL) were prepared similarly. The compounds were tested at a final concentration of 40 μg/mL in duplicate in a 96 well microtitre plate (100 μL per well), followed by 100 μL of 1% parasitized blood. Positive and negative controls (no drug) were included. The plate was incubated under the same culture conditions as above for 48 h and antiplasmodial activity determined by fluorescence microscopy (Leitz Wetzlar, Germany) with acridine orange stain at × 40 magnification under oil immersion. The number of infected erythrocytes (Ei) was counted in 20 monolayer fields (approximately 1500 cells per field) and the percentage parasitaemia was calculated using the formula:1 %parasitaemia=∑Ei/30,000×100
The percentage inhibition per concentration was then obtained using the formula below:2 percentage%inhibition=%parasitaemia of control well‐%parasitaemia of test well/%parasitaemia of control well×100

The subject of series [4] is P. falciparum Dd2. As to the kind of experiment: Secondary screen: parasite growth inhibition by parasite lactate dehydrogenase (pLDH) assay, Dd2. The format is cell-based, Plasmodium falciparum. More on the design: key to Antiplasmodial activity class on Dd2: active, IC50 < 5 μg/mL; moderately active: 5 μg/mL ≤ IC50 ≤ 10 μg/mL; weakly active: IC50 ≥ 10 μg/mL. To be noted: for Antiplasmodial activity class on Dd2: Dd2 strain, class by IC50; for IC50 / IC90: Plasmodium falciparum, Dd2 chloroquine-resistant strain, pLDH assay, mean ± S.D.; for IC50: read-out: IC50; for IC90: read-out: IC90.
Excerpt: as §3, §4, §5, §2

The values below come from article PMC6033213, “Structurally simple synthetic 1, 4-disubstituted piperidines with high selectivity for resistant Plasmodium falciparum” (BMC Pharmacology & Toxicology, 2018).

In brackets after ≈: the same amount, converted by molar mass.

With `OC(c1ccc(F)cc1)C1CCN(Cc2ccc(Cl)cc2)CC1` (stereo not drawn) [Compound 9, [1-(4-chlorobenzyl)piperidin-4-yl] [4-fluorophenyl] methanol], the CC50 at 72 h in series [1] is 250 µg/mL (≈ 749 µM). Further, the “Mean SI” value in series [2] turned out to be 156.25 ± 9.5. Besides, in the series on P. falciparum 3D7, the “Antiplasmodial activity class on 3D7” value is on record as “active”, the IC50 worked out at 1.53 ± 0.24 µg/mL (≈ 4.58 µM) and the IC90 stood at 16.1 ± 2.13 µg/mL (≈ 48.2 µM). The inhibition at 40 µg/mL in the series with P. falciparum Dd2 [3] was found to be 93.2%. In the series on P. falciparum Dd2 [4], the “Antiplasmodial activity class on Dd2” value was “active”, the IC50 came to 1.67 ± 0.24 µg/mL (≈ 5 µM) and the IC90 was 16.1 ± 2.13 µg/mL (≈ 48.2 µM).

As to `OC(c1ccc(F)cc1)C1CCN(Cc2ccc(Br)cc2)CC1` (stereo not drawn) [Compound 11, [1-(4-bromobenzyl)piperidin-4-yl] [4-fluorophenyl] methanol], half-maximal cytotoxicity in series [1] (CC50 at 72 h) was put at 188 µg/mL (≈ 496 µM). In series [2], the “SI on 3D7” value is given as 74.49 and the “Mean SI” value is listed as 128.26 ± 76.1. Also, in the series with P. falciparum 3D7, the “Antiplasmodial activity class on 3D7” value is “active”, the IC50 was 2.51 ± 0.3 µg/mL (≈ 6.64 µM) and the IC90 was 16.8 ± 0.88 µg/mL (≈ 44.4 µM). This molecule showed an inhibition at 40 µg/mL in the series on P. falciparum Dd2 [3] of 85.6%. In the series on P. falciparum Dd2 [4], the “Antiplasmodial activity class on Dd2” value was “active”, the IC50 was 1.03 µg/mL (≈ 2.72 µM) and the concentration for an effect of 90% (IC90) turned out to be 27.8 ± 0.98 µg/mL (≈ 73.5 µM).

Take `Cc1ccc(CN2CCC(C(O)c3ccc(F)cc3)CC2)cc1` (stereo not drawn) [Compound 12, [1-(4-methylbenzyl)piperidin-4-yl] [4-fluorophenyl] methanol]: half-maximal cytotoxicity in series [1] (CC50 at 72 h) was put at 188 µg/mL (≈ 598 µM). Also, in series [2], the “SI on 3D7” value stood at 55.52 and the “Mean SI” value was 61.46 ± 8.39. For the same molecule, the “SI on Dd2” value in series [2] (CC50 on LLC-MK2 cells/IC50 on P. falciparum Dd2) is reported as 67.39. In the series with P. falciparum 3D7, the “Antiplasmodial activity class on 3D7” value was “active”, the IC50 was determined as 3.37 ± 0.82 µg/mL (≈ 10.8 µM) and the IC90 came out at 15.7 µg/mL (≈ 50.2 µM). This molecule displayed an inhibition at 40 µg/mL with P. falciparum Dd2 [3] of 83.1%. In the series with P. falciparum Dd2 [4], the “Antiplasmodial activity class on Dd2” value is given as “active”, the half-maximal inhibitory concentration (IC50) worked out at 2.78 ± 0.09 µg/mL (≈ 8.87 µM) and the IC90 was found to be 10.2 ± 3.31 µg/mL (≈ 32.5 µM).
